How the values were obtained:
[1] = refractive index (Na D-line) (dimensionless); conditions: 298.15 K; 100 kPa; Liquid; Standard Abbe refractometry
[2] = relative permittivity at zero frequency (dimensionless); xn = mol fraction of the nth substance listed; conditions: 298.15 K, Liquid, Parallel plate capacitor

OCC(O)CO [glycerol]
Conditions | refractive index
[1] | 1.4722

OCC(O)CO [glycerol] + O
relative permittivity at zero frequency, [2]
Conditions | 100 kPa | 50000 kPa | 100000 kPa | 150000 kPa | 200000 kPa | 250000 kPa | 300000 kPa
x1 = 0.2 | 63.79 | 65.05 | 66.28 | 67.44 | 68.55 | 69.62 | 70.65
x1 = 0.4 | 55.26 | 56.37 | 57.44 | 58.46 | 59.43 | 60.37 | 61.28
x1 = 0.6 | 49.52 | 50.55 | 51.5 | 52.42 | 53.29 | 54.14 | 54.95
x1 = 0.8 | 45.48 | 46.43 | 47.33 | 48.18 | 48.99 | 49.77 | 50.53

O [water] + OCCO
[2], x2 = 0
Conditions | relative permittivity at zero frequency
100 kPa | 78.39
50000 kPa | 80.18
100000 kPa | 81.88
150000 kPa | 83.47
200000 kPa | 85.01
250000 kPa | 86.48
300000 kPa | 87.94

OCCO [1,2-ethanediol]
Conditions | refractive index
[1] | 1.4304

OCCO [1,2-ethanediol] + O
relative permittivity at zero frequency, [2]
Conditions | 100 kPa | 50000 kPa | 100000 kPa | 150000 kPa | 200000 kPa | 250000 kPa | 300000 kPa
x1 = 0.2 | 65.26 | 66.72 | 68.04 | 69.3 | 70.47 | 71.6 | 72.68
x1 = 0.4 | 56.38 | 57.74 | 58.96 | 60.14 | 61.19 | 62.23 | 63.22
x1 = 0.6 | 49.73 | 50.99 | 52.14 | 53.21 | 54.2 | 55.15 | 56.06
x1 = 0.8 | 44.76 | 45.95 | 47.04 | 48.05 | 49 | 49.89 | 50.72
